The results in this text go back to patent publication US20250034138A1, “Compounds and Compositions as C-Kit Kinase Inhibitors” (Enanta Pharmaceuticals, Inc., priority 2023, published 2025).

Assay [1] concerns the target T1, Recombinant human c-KIT kinase (Homo sapiens, UniProt P10721).
T1 construct: purchased Promega V4498
Put plainly: c-KIT Kinase Chemiluminescence Assay (ADP-Glo). It counts as biochemical. The note with it: recombinant human c-KIT 30-40 nM, ATP 50 μM, polyEY substrate, ADP-Glo luminescence. The text has this:
Staurosporine (AM-2282) and Imatinib (STI571) were purchased from Selleck Chemicals LLC (Houston, TX). The c-KIT reference compound THB001 (EP-053504) was synthesized by Enanta Pharmaceuticals, Inc. (Watertown, MA). The c-KIT Kinase Enzyme System (V4498) and ADP-Glo™ Kinase Assay kit (V6930) were purchased from Promega (Madison, WI). DMSO (D2650) was purchased from Sigma-Aldrich (Burlington, MA). ECHO-650 acoustic liquid handling system (67492212) and 384-well LDV ECHO source plates (LP-0200) were purchased from Labcyte, Inc (San Jose, CA). Envision Multimode Plate Reader (2104/464466) and ProxiPlate-384 Plus White 384-shallow well microplates (6008280) were purchased from PerkinElmer (Waltham, MA).
1. c-KIT Kinase Chemiluminescence Assay:
IC50 determination. Test compounds were dispersed into a 384-well low volume while ProxiPlate microplate from a DMSO solution using an ECHO 650 acoustic dispenser to generate a 11-point, 3.162-fold dilution, concentration curve starting at 10 μM in duplicate. Kinase Reaction: The kinase assay was based on the recommended protocol by c-KIT Kinase Enzyme System from Promega. Recombinant human c-KIT kinase in 3 μL of assay buffer (40 mM Tris pH 7.5, 20 mM MgCl2, 0.1 mg/mL BSA and 50 μM DTT) was added to the test or high control wells and 3 μL of assay buffer was added to the low control wells. The microplate was centrifuged at 800 rotations per minute (rpm) for 60 s and incubated at room temperature (RT) for 30 min. Next, 2 μL of buffered ATP and polyEY substrate solution was added to all wells. The microplate was centrifuged at 800 rpm for 60 s and incubated at RT for 2 h. The final assay contained c-KIT (30-40 nM), ATP (50 μM), polyEY substrate (0.2 μg/μL), test compounds (0-10 μM) and DMSO (1.7%) in 5 μL assay buffer. ADP detection with ADP-Glo™ Kinase Assay: After the kinase reaction incubation, 5 μL of ADP-Glo™ reagent was added to all wells. The microplate was centrifuged at 800 rpm for 60 s and incubated at RT for 40 min. Ten microliter (10 μL) of Kinase Detection Reagent (Luciferin-Luciferase system) was then added to all wells. The microplate was centrifuged at 800 rpm for 60 s and incubated at RT for 60 min. Kinase activity was measured as increase in luminescence at RT in an Envision plate reader equipped with 560 nm filters and operating in endpoint mode.
Data Analysis: Endpoint chemiluminescence from high and low control wells were used to calculate normalized c-KIT activity at various concentrations of test compounds. The normalized activities were fitted to inhibitor-versus-normalized response fit in GraphPad Prism 7 to determine half-maximal inhibitory concentration (IC50) and hill coefficient values (H).
c-KIT activity (%)=100/(1+I^H/IC50^H). Where I is the inhibitor concentration and H is the Hill coefficient. IC50 ranges are reported as follows: A<100 nM; B 0.1-1 μM; C>1 μM.
A general note: ADP-Glo first removes unused ATP, then detects ADP through luciferase.

Assay [2] relates to M-07e cells which endogenously express human c-KIT. Put plainly: M-07e Cellular Assay (SCF-mediated cell proliferation, CellTiter Glo). The note with it: SCF (EC90)-stimulated M-07e cell proliferation, 72 hours, CellTiter Glo, read-out: M-07e EC50. It counts as cell-based. Here is the method:
2. M-07e Cellular Assay M-07e cells (Creative Bioarray, CSC-CO249) which endogenously express human c-KIT were used to evaluate the effect of compounds on stem cell factor (SCF)-mediated cell proliferation. M-07e cells were cultured in growth media (RPMI+10% FBS+1% penicillin/streptomycin+10 ng/mL GM-CSF) at 5E5-1.5E6 cells/mL, replenishing media every 3-4 days. 1.5E4 cells were seeded per well in 384 well tissue culture treated plates in 20 μL assay media (RPMI+10% FBS+1% penicillin/streptomycin) without growth factor stimulation and incubated at 37° C. in a CO2 humidity-controlled incubator. Twenty-four hours later, three-fold serially diluted test compounds in media containing SCF (at the previously determined EC90) were added to the plated M-07e cells and incubated for an additional 72 hours. Cell viability was determined by adding 25 μL CellTiter Glo (Promega) to the cells and the luminescence was measured using a Perkin Elmer Envision plate reader. The EC50 was determined using GraphPad Prism. […] EC50 ranges are reported as follows: […]
On the technique in general: Cellular ATP, detected with luciferase, serves as a proxy for viable cell number.

T1 sequence (P10721 26-976): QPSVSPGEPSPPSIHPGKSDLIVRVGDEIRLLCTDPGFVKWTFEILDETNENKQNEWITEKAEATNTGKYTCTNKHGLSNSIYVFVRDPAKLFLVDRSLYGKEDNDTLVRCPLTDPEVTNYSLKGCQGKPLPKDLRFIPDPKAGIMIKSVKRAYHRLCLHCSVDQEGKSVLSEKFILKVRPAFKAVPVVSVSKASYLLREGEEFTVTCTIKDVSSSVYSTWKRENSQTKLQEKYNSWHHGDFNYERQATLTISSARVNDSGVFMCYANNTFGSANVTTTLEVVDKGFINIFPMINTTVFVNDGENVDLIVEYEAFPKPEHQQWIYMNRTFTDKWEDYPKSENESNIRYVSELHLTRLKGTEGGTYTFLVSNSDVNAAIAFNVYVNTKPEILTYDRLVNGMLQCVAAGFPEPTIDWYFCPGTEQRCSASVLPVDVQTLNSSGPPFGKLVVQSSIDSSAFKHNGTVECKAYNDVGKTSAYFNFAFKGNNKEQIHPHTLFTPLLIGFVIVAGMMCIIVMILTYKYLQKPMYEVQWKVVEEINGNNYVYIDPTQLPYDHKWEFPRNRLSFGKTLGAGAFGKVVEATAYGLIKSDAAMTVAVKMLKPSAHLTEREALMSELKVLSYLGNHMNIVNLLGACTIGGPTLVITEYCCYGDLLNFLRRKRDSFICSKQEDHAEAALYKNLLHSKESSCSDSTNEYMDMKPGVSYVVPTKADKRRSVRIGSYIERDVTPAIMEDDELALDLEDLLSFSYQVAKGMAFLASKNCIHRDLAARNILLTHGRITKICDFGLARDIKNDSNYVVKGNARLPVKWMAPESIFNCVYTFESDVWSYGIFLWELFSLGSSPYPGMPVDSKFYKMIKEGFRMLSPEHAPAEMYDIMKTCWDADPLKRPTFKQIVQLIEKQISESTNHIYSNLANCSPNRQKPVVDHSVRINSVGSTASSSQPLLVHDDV

A word on the IC50: it is the concentration needed to halve the response being measured. By EC50 is commonly meant the concentration at which the effect is half-maximal. As to `Cc1ccc(-c2nnc(C3CC(F)(F)C3)s2)cc1NC(=O)c1cnc2ccccn12` [Example 1-1], in assay [1], the IC50 was below 100 nM. Moreover, the EC50 in assay [2] was below 100 nM.
With `Cc1ccc(-c2nnc([C@H]3C[C@@H]3F)s2)cc1NC(=O)c1cnc2ccccn12` [Example 1], the IC50 in assay [1] was below 100 nM. Besides, the EC50 in assay [2] is below 100 nM.
As to `Cc1ccc(-c2nnn(C3CC3)n2)cc1NC(=O)c1cnc2ccccn12` [Example 2], the IC50 in assay [1] was in the range of 100 to 1000 nM. Moreover, in assay [2], the EC50 was below 100 nM.
The matching figures for `Cc1ccc(-c2nnn(C3CC(F)(F)C3)n2)cc1NC(=O)c1cnc2ccccn12` [Example 3]: below 100 nM and below 100 nM.
For `Cc1ccc(-c2nc(C3CC(F)(F)C3)cs2)cc1NC(=O)c1cnc2ccccn12` [Example 4] the same measures were below 100 nM and 100 to 1000 nM.
With `Cc1ccc(-c2nnc(C3CC3)n2C2CC2)cc1NC(=O)c1cnc2ccccn12` [Example 5], the IC50 in assay [1] is above 1000 nM. In assay [2], the EC50 is above 1000 nM.
As for `Cc1ccc(-c2nc(C3CC3)nn2C)cc1NC(=O)c1cnc2ccccn12` [Example 6-1], the IC50 in assay [1] is above 1000 nM. In addition, in assay [2], the EC50 lay in the range of 100 to 1000 nM.
As for `Cc1ccc(-c2nc3ccc(F)cn3n2)cc1NC(=O)c1cnc2ccccn12` [Example 6-2], the IC50 in assay [1] is below 100 nM. In addition, in assay [2], the EC50 is below 100 nM.
As for `Cc1ccc(-c2nc3ccc(Cl)cn3n2)cc1NC(=O)c1cnc2ccccn12` [Example 6-3], the half-inhibitory concentration (IC50) in assay [1] is below 100 nM. Also, the EC50 in assay [2] is below 100 nM.
For the compound `Cc1ccc(-c2cn3c(n2)CCCC3)cc1NC(=O)c1cnc2ccccn12` [Example 6-4], the IC50 in assay [1] was 100 to 1000 nM. In assay [2], the EC50 is below 100 nM.
For `Cc1ccc(-c2cn3c(n2)CCC3)cc1NC(=O)c1cnc2ccccn12` [Example 6-5], the IC50 in assay [1] fell in the range of 100 to 1000 nM. In addition, the EC50 in assay [2] fell in the range of 100 to 1000 nM.
`Cc1ccc(-c2nc3cc(F)ccn3n2)cc1NC(=O)c1cnc2ccccn12` [Example 6-6]: in assay [1], the IC50 is below 100 nM. Also, the EC50 in assay [2] was below 100 nM.
Turning to `Cc1ccc(-c2nc3ccccn3n2)cc1NC(=O)c1cnc2ccccn12` [Example 6-7], the IC50 in assay [1] was above 1000 nM.
`Cc1ccc(-c2nc3n(n2)[C@@H](c2ccccc2)C[C@H]3F)cc1NC(=O)c1cnc2ccccn12` [Example 6-8]: in assay [1], the IC50 is 100 to 1000 nM. In assay [2], the EC50 lay in the range of 100 to 1000 nM.
For `Cc1ccc(-c2nc3ccc(C(F)(F)F)cn3n2)cc1NC(=O)c1cnc2ccccn12` [Example 6-9], in assay [1], the IC50 is below 100 nM. Also, the 50% effective concentration (EC50) in assay [2] is below 100 nM.
In the case of `Cc1ccc(-c2nc3cccc(C(F)(F)F)n3n2)cc1NC(=O)c1cnc2ccccn12` [Example 6-10], the IC50 in assay [1] fell in the range of 100 to 1000 nM. In addition, the EC50 in assay [2] fell in the range of 100 to 1000 nM.
With `Cc1ccc(-c2nnc3n2CCCC3)cc1NC(=O)c1cnc2ccccn12` [Example 6-11], the IC50 in assay [1] is above 1000 nM.
With `Cc1ccc(-c2nc3n(n2)CCCC3)cc1NC(=O)c1cnc2ccccn12` [Example 6-12], in assay [1], the IC50 was 100 to 1000 nM. For the same compound, the EC50 in assay [2] was 100 to 1000 nM.
As for `Cc1ccc(-c2nc3n(n2)CCN(C(=O)OC(C)(C)C)C3)cc1NC(=O)c1cnc2ccccn12` [Example 6-13], the IC50 in assay [1] was below 100 nM. In addition, the EC50 in assay [2] was in the range of 100 to 1000 nM.
`Cc1ccc(-c2nc3cc(C(F)(F)F)ccn3n2)cc1NC(=O)c1cnc2ccccn12` [Example 6-14]: the IC50 in assay [1] was below 100 nM. Also, in assay [2], the EC50 was below 100 nM.
`Cc1ccc(-c2nc3cc(Cl)ccn3n2)cc1NC(=O)c1cnc2ccccn12` [Example 6-15]: the IC50 in assay [1] was below 100 nM. In addition, in assay [2], the EC50 fell in the range of 100 to 1000 nM.
Turning to `Cc1ccc(-c2nc3n(n2)CCN(C(=O)C2CC(F)(F)C2)C3)cc1NC(=O)c1cnc2ccccn12` [Example 6-19], the IC50 in assay [1] fell in the range of 100 to 1000 nM.
On the same count and under the same terms, for `Cc1ccc(-c2nc3n(n2)CCN(C(=O)[C@H]2[C@@H]4CC(F)(F)C[C@@H]42)C3)cc1NC(=O)c1cnc2ccccn12` [Example 6-20] the value was above 1000 nM.
Turning to `Cc1ccc(-c2ncc(C3CC(F)(F)C3)n2COCC[Si](C)(C)C)cc1NC(=O)c1cnc2ccccn12` [Example 11-11], in assay [1], the IC50 is above 1000 nM.
